Assay [1] concerns the target T1, HPV-16-E6 (recombinant GST-E6 protein) (Human papillomavirus type 16, UniProt P03126).
T1 construct: The full length HPV16 E6 gene was amplified via polymerase chain reaction and cloned in the vector pGeX4T2; made in house; host or cells: E. coli strain AB1899
Description: biochemical. Type of assay: biochemical. The settings on record: read-out: TSQ % (% values of Zinc release). The text has this:
Where the chelated metal is zinc, zinc release can be measured as an increase in the fluorescence of the zinc-selective fluorophore TSQ (N-(6-methoxy-8-quinolyl)-p-toluenesulfonamide) (18) in the presence of the protein and the active compound (TSQ assay).
In such an assay, the increase in fluorescence measured can be described as a percentage of the increase in fluorescence observed for a positive control compound which provides 100% zinc release. A suitable positive control compound is H2O2. Preferred compounds which may be useful in the present invention are those which release at least 30% of the chelated zinc as measured by the TSQ assay. Particularly preferred compounds for use in the present invention are those which release at least 40% of the chelated zinc, more preferably at least 50%.
In earlier studies, reduced glutathione (GSH) was required to elute recombinant glutathione sulfhydryl transferase E6 (recombinant (GST-E6)) protein during the purification process. However, the reducing activity of the GSH sulfhydryl groups protected GST-E6 protein from the chemical attack by agents, such as the disulphide based organic compounds of Formula (I) and (II). […] Individual assays were done in the presence of 9 μg GST-E6 protein, corresponding to a concentration of 1 μM GST-E6 protein and 2 μM bound zinc, assuming the presence of two Zn ions per protein.
Release of zinc from HPV-16-E6 was monitored by the change in fluorescence of the zinc-selective fluorophore TSQ (N-6-methoxy-8-quinolyl)-p-toluenesulfonamide), (Molecular Probes, Eugene, Oreg.) by modification of published procedures (25, 26, 27). In a total reaction volume of 200 μl, 9 μg (1 μM) recombinant GST-E6 protein (corresponding to a concentration of 1 μM), bound to glutathione-sepharose beads, were incubated with 10 μM of each compound or 0.6% (170 mM) H2O2 in TSQ-assay buffer (10 mM sodium phosphate buffer pH7.0, 10% glycerol) for 2 hours at room temperature (200 μl total volume in 96-well plates). Immediately after addition of 100 μM TSQ, the increase in fluorescence was measured on a SLT Fluostar (355 nm excitation filter and 460 nm emission filter, Tecan, Salzburg).
Values given are % values of Zinc release. The relative fluorescence units (RFU) were normalized to the amount of zinc released by H2O2 (regarded as 100%). The concentration of compound used was 10 μM for C27–C35, 13 μM for C37–C83, H2O2 was used at 0.3% for C27–C35 and 0.2% for C37–C83.

Assay [2] has as its target T2, binding of E6 with E6AP and E6BP (Human papillomavirus type 16, UniProt P03126).
T2 construct: The full length HPV16 E6 gene was amplified via polymerase chain reaction and cloned in the vector pGeX4T2; made in house; host or cells: E. coli strain AB1899
On the set-up: species or system HPV-16. The settings on record: 400 μM compound, 2 hrs at room temperature, GST-E6 7 μM in 10 mM GSH. The text has this:
BIACORE allows real time analysis of bimolecular interactions without the need for isotopic or enzymatic labelling. BIACORE technology is based on the optical surface plasmon resonance (SPR), a technique that allows for detecting small changes in the refractive index on the surface of a thin gold film coated with a dextran matrix. Typically, one of the binding partners (termed the ligand) is covalently linked to the dextran matrix, while the other partner (termed the analyte) is introduced in a flow passing over the surface. The change in refractive index resulting from the interaction of the molecules is expressed in resonance units (RU): a SPR response of 1000 RU corresponds to a change of the surface concentration of the analyte of 1 ng protein/mm^2. GST-E6AP and GST-E6BP were used as ligands and GSTE6 was used as the analyte. […] Further controls included using the dextran matrix alone or GST as the ligand.
Binding of GST-E6 to GST-E6BP, GST-E6AP and GST was monitored by surface plasmon resonance (SPR) on a BIACORE 2000 machine (Biacore AB, Uppsala, Sweden). […] Typically 6000–10000 RU of GST, E6BP and E6AP were immobilized on three difference flowcells. Aliquots of purified HPV-16 GST-E6 (7 μM in 10 mM GSH, 50 mM Tris/PBS buffer, pH 8.2) were incubated with either 400 μM compound, or 5 mM EDTA, or 0.6% (170 mM) H2O2 for 2 hrs at room temperature. Then 10 μl of sample was injected at 1 μl/min over the three immobilized ligands using the sequential flow mode. The interactions between GST-E6 and ligands were monitored by the change of resonance signal in arbitrary units (RU).

In assay [3] the test system is HPV containing cell lines as HeLa, SiHa and Caski, compared to HPV-negative cell lines MCF7, HEPG2, (HaCat, HT3, 444). Description: Cell viability (WST1 assay), panel of HPV-positive and HPV-negative cell lines. The format is cell-based, human. The settings on record: 50 μM in cell culture. The protocol: Zinc finger proteins are required for maintenance of cell viability. Preferably, the compounds for use in the present invention are specific in their ability to affect the viability of MPV containing cells, with little or no cytotoxic effects on the cellular functioning of healthy non-MPV containing cells. The viability of MPV-infected cells (and non infected cells) in the presence of compounds of Formulae (I) or (II) can be measured by incubating with the tetrazolium salt WST1 (Roche Molecular Biochemicals, Manneheim Germany) and measuring the absorption readings thereof (WST1 assay).
All cell lines were obtained from the American Type Culture Collection (Manassas, Va.) unless otherwise noted. SiHa (human cervical epithelial tumor line, HPV16-positive), CaSki (human cervical epithelial tumor line, HPV16-positive), HaCat (immortalized human skin epithelial cell line, HPV-negative), HeLa (human cervical epithelial tumor line, HPV18-positive), 444 (hybrid of HeLa and fibroblast, HPV18-positive) obtained from Eric Stanbridge (Universitv of California, Irvine), MCF7 (human mammary epithelial tumor cell line, HPV-negative), HT3 (human cervical epithelial tumor cell line, HPV-negative) was obtained from the German Cancer Research Institute/DKFZ-Heidelberg, and HepG2, (human liver epithelial tumor cell line, HPV-negative), were grown in Dulbecco's modified Eagle medium (DMEM) supplemented with 10% fetal calf serum, 100 U penicillin and 1000 U streptomycin. Cells were allowed to attach to the surface of microwell dishes overnight and subsequently, incubated with medium containing the zinc ejecting compounds at the concentrations (10–100 μM). Viability of the cells was scored by measuring the absorption of the tetrazolium salt WST1 (Roche Molecular Biochemicals, Mannheim, Germany) in an Elisa-plate reader (Tecan, Salzburg, Austria) at a wavelength of 450 nm and a reference wavelength of 630 nm.
A total of 10 000 cells per well were plated on 24 well plates, after attachment overnight, they were treated 3 times in 3 days with C16 at 10 μM and 50 μM. The activity of C16 was also compared with that of C4 (azodicarbonamide) which causes ejection of zinc from HIV-1 NCp7 and is currently used in clinical trials for the treatment of AIDS.
For orientation: Formazan colour is commonly taken as a measure of viable cells.

T2 sequence (P03126 whole entry): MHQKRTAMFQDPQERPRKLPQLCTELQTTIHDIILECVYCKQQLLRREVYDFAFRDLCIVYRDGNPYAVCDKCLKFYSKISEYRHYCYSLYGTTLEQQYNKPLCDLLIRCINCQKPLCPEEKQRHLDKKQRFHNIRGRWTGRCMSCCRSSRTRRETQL
T1 sequence (P03126 whole entry): as above

Turning to `O=CN(SSN(C=O)C1CCCCC1)C1CCCCC1` [Compound R26], in assay [1], the activation at 10 µM was 54.9%. Moreover, in assay [2], the “BIACORE (E6BP/E6AP)” value was “+ (compound interferes in binding of E6 with E6AP and E6BP, binding is less than 50% of the corresponding E6-DMSO value.)”. Also, in assay [3], the WST1 result is “+”.
